# Where two headings read alike, the source gives them in different places.
# Experiments:
# ABCG1 = ABCG1 gene expression by real-time RT-PCR in aortic smooth muscle cells; format: cell-based, human; settings: normalized with HPRT, n=1 or 2
# Experimental: (§1) The cells, grown to confluence according to the supplier's instructions (Lonza), were serum-depleted, pre-treated for 1h with increasing concentrations of ACT-333679 (i.e. MRE-269), and incubated in the presence of 10ng/mL PDGF-BB for 24h for Figures 4 and 5, and 6h for Figure 6. The treated cells were then incubated during 4 hours with 10µg/mL of fluorescently labelled DiI-oxLDL (Figures 4 and 5) and their ability to internalise the oxLDL was analysed by fluorescence microscopy (Figure 4) and FACS (Figure 5). FACS allows precise quantification of the number of fluorescent cells (i.e. those that have incorporated fluorescent oxLDL) and the intensity of the incorporated fluorescence per cell (i.e. the quantity of incorporated oxLDL/cell). Nuclei were stained with 4'-6'diamidino-2-phenylindol (DAPI) for analysis by fluorescence microscopy (Figure 4) or cells were directly analysed by flow cytometry (Figure 5). A detailed description of the protocol and apparatus used is given in the art.
# (§2) Regarding Figure 4, representative images of the analysis of 5 fields examined in two experiments (n=2). […]
# (§3) The expression of genes encoding transporters involved in cholesterol efflux (ABCA1: ATP-binding cassette A1 and ABCG1: ATP-binding cassette subfamily G member 1) was measured by real-time RT-PCR. […]
# ABCA1 = ABCA1 gene expression by real-time RT-PCR in aortic smooth muscle cells; format: cell-based, human; settings: normalized with HPRT, n=1 or 2
# Experimental: as §1, §2, §3
# [1] = tested on: human aortic smooth muscle cells; test: Internalisation of DiI-oxLDL by aortic smooth muscle cells (fluorescence microscopy and FACS); format: cell-based; settings: 1h pre-treatment, DiI-oxLDL 10 µg/mL 4 hours, read-out: concentration from which incorporation of oxLDL is inhibited
# [2] = tested on: vascular smooth muscle cells-derived foam cells; test: Radioisotopic cholesterol efflux assay ([3H]-cholesterol-loaded VSMCs); format: cell-based, human
# Text: Primary cultures of aortic smooth muscle cells (AoSMC) obtained from a human diabetic and obese donor ([…]) were purchased from Lonza (D-AoSMC CloneticsTM). Cells were cultivated on 12-well plates at 50 000 cells/well in a growth medium composed of the Smooth Muscle Basal Medium (SmBM, Lonza) supplemented with 0.2% hEGF, 0.1% insulin, 0.2% hFGF-B, 5% Fetal Bovine Serum (FBS) and 0.1% gentamicin/amphotericin-B (SingleQuots, Lonza, concentrations not specified) according to Lonza's instructions. The foam phenotype was induced when cells reached a subconfluent density. During all the experiments, cells were maintained within an atmosphere enriched with 5% CO2 at 37°C and were used at passages ranging from 6 to 9. […]
# Cholesterol efflux assay was performed as previously described by using [3H]-cholesterol-loaded VSMCs. […] Fractional cholesterol efflux, expressed as a percentage, was calculated as the amount of the radioactivity recovered in the cleared medium divided by the total radioactivity (radioactivity in the medium + radioactivity in the cells). Radioactivity in the cells was obtained after the lipid extraction in a mixture of hexane isopropanol (3:2 v/v) and was determined by liquid scintillation counting on a Wallac Trilux 1450 Microbeta scintillation counter (PerkinElmer, MA, USA). […]
# [3] = pre-treated 1h, then PDGF-BB 10 ng/mL 6h
Compound,Expression of PDGF-BB-inhibited ABCG1 gene (ABCG1; [3]),Expression of PDGF-BB-inhibited ABCA1 gene (ABCA1; [3]),"minimal effective concentration ([1]; Homo sapiens, basal incorporation) [µM]",minimal effective concentration ([1]; incorporation stimulated by PDGF-BB 10 ng/mL 24h) [µM],"Basal cholesterol efflux ([2]; MRE-269 100 nM alone, no rHDL, basal efflux about 2.6 %)","cholesterol efflux ([2]; MRE-269 100 nM together with rHDL 20 µg/mL, 24h, n=6) [%]","basal expression of gene encoding ABCG1 (ABCG1; basal, no PDGF-BB)","basal expression of gene encoding ABCA1 (ABCA1; basal, no PDGF-BB)"
CC(C)N(CCCCOCC(=O)O)c1cnc(-c2ccccc2)c(-c2ccccc2)n1 [MRE-269],partially restored,partially restored,≥ 0.005,≥ 0.005,not modified,20.21,–,–
"CC(C)N(CCCCOCC(=O)NS(C)(=O)=O)c1cnc(-c2ccccc2)c(-c2ccccc2)n1 [Selexipag, 2-{4-[(5,6-diphenylpyrazin-2-yl)(isopropyl)amino]butoxy}-N-(methylsulfonyl)acetamide]",–,–,–,–,–,–,increased,increased
